Measured values as given in publication PMC11203436, “Hell’s Gate Globin-I from Methylacidiphilum infernorum Displays a Unique Temperature-Independent pH Sensing Mechanism Utililized a Lipid-Induced Conformational Change” (International Journal of Molecular Sciences, 2024).

Tests used:
[1] = molecular target: T1, Hell's Gate globin-I (HGb-I) (Candidatus Methylacidiphilum infernorum, UniProt B3DUZ7); assay: stopped-flow CO binding kinetics; optical spectrum of ferrous-CO form
T1 construct: gene hmp
T1 sequence (B3DUZ7 1-133): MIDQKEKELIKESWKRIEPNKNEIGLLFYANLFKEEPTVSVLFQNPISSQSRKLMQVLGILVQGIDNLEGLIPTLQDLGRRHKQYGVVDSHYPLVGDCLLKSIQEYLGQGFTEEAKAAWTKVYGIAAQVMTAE

[2] = molecular target: T1, Hell's Gate globin-I (HGb-I); assay: optical (absorbance) titration of ferric protein at pH […] °C; format: binding
[3] = molecular target: T1, Hell's Gate globin-I (HGb-I); assay: optical (absorbance) titration of ferric protein at pH […] °C; supported by EPR and stopped flow; format: binding

For [C-]#[O+] [carbon monoxide], the “stopped-flow CO binding kinetics; optical spectrum of ferrous-CO form” value [1] was “In the absence of oleate, the CO binding to the hexacoordinate form is slow and reaches a plateau”.

CCCCCCCCCCCCCCCC(=O)O [palmitate] gave a Kd [2] of 9.88 µM.

In the case of CCCCCCCC/C=C\CCCCCCCC(=O)O [oleate], the Kd [3] is reported as 0.73 µM.
